Converted amounts (≈) assume the structure as drawn.
Experiments:
[1] = tested on: THP-1 cells; test: Example D: LPS-triggered THP-1 cell death assay, acute/5-hour and chronic/48-hour; format: cell-based, Human; details: 10 ng/ml LPS, 0.1 μM test compound, 48 hours
Experimental: Compounds of the invention were tested at 0.1 μM versus AC in the LPS-triggered THP-1 cell death assay. Both acute/5-hour and chronic/48-hour phases of cell death were assessed. Compounds were screened in batches with DMSO as the negative control and AC as the high activity control.

[2] = tested on: S. cerevisiae; test: Example I: Saccharomyces cerevisiae growth inhibition (OD 600 nm); format: cell-based; details: for IC50 / MIC: Saccharomyces cerevisiae, 18 hour incubation at 30° C., OD 600 nm, XLfit; for IC50: read-out: IC50, uM (50% inhibition of fungal growth); for MIC: read-out: MIC, uM (99% of inhibition of fungal growth)
Experimental: An overnight culture of S. cerevisiae was dilution in YPD broth to concentration of 40,000/ml and 150 μl/well was plated in 96 well plates. Compounds were then added to each well with concentration ranged from 4 to 50 μM as final concentration. The plates were inoculated at 30° C. overnight with shaking at 220 rpm and absorbance at 600 nm was read after 18 hour incubation.
• 1. One days prior to the inoculum preparation, pick a single colony of S. cerevisiae from the Sabouraud Dextrose Agar plate using the inoculum loop and inoculate into a 50 mL tube containing 10 ml of YPD growth medium • 2. Incubate at 30° C. with shaking at 220 rpm for 24 hours with loosen lid to allow air in and facilitates growth. • 3. Examine an aliquot of the culture under a microscope for yeast cell morphology and lack of bacterial contamination. • 4. Dilute the overnight culture with YPD medium at 1:30 dilution (70 ul to 2.1 ml) and count the number of cells as 4,230,000/ml. • 5. Mix 620 μl of 1:30 dilution and 64.4 ml YPD to make final concentration of 40,000/ml cells • 6. Plated 144 μl/well in four 96-well plates.
• 1. From 10 mM DMSO stock solutions, make serial dilutions of compounds to 0.1, 0.2, 0.3, 0.63 and 1.25 mM solutions • 2. Add 6 μl each of diluted compound solutions per well in duplicates. The final concentrations were 0, 4, 8, 12, 25 and 50 micromolar. • 3. Incubated all plates at 30 C for overnight (˜18 hours) with 220 rpm shaking. • 4. Read absorbance at OD600 for each plate on Spectra Max Plus plate reader. • 5. Calculate the % inhibition of each compound against the DMSO treated cell and plotted.

[3] = tested on: PC3 human prostate cancer cells; test: Example S: in vitro anticancer screen, PC-3 cells, Wst1; format: cell-based; details: Homo sapiens, PC-3, approximately 20 hours, Wst1, read-out: PC-3, percent of cancer cell survival relative to vehicle treated cells
Summary of the method: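 Values give percent survival relative to vehicle, read by Wst1 absorbance (450/630 nm) after 2 h dye incubation, in triplicate. Cells were seeded at 2×10^4/well and treated about 20 h with compound at 0.4, 0.5 or 2.5 μM, depending on compound.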

[4] = tested on: imiquimod-induced dermatitis; details: for Ear thickness, Mean ± SEM: imiquimod-treated mice; for Ear thickness, Mean ± SEM / PASI Score, Mean ± SEM: topical ointment 0.06% active drug (dexamethasone 0.03%, tacrolimus 0.1%); for PASI Score, Mean ± SEM: scale 0-12
Experimental: Topical imiquimod (IMQ), a toll-like receptor agonist, has been established as a model of Inflammatory skin diseases including psoriasis and atopic dermatitis. Dermal inflammatory changes and gene expression in mice treated with topical imiquimod mimic human psoriasis and dermatitis (van der Fits et al., 2009; Swindell et al., 2011). The effect of a set of compounds of the invention were tested in a mouse model of imiquimod-induced dermatitis, with topical tacrolimus and dexamethasone as comparators for assessing safety and efficacy relative to standard agents used to treat dermatitis in humans.
Commercial 0.1% tacrolimus ointment (ProTopic™[…]) was also used as an active comparator. Petrolatum containing 10% ethanol was used as a control treatment.
Female Balb/C mice (8 weeks old) were randomized and divided into groups of 5 animals each. Polyethylene collars were affixed to the mice to prevent them from easily scratching their ears. 5% imiquimod was applied to both ears of each mouse (20 microliters per ear) daily for 5 days, and then every other day for the full duration of the study. […] On day 7 after initiation of imiquimod, treatment with topical agents was started. Both ears of each mouse were treated with test ointments, with one compound per mouse.
Ear thickness and PASI assessments (Psoriasis Area and Severity Index, a standard psoriasis scoring system) were recorded twice per week throughout the study. The PASI score comprises the sum of evaluations of swelling, erythema and scaling on scales from 0 to 4; the maximum PASI score is 12, and the minimum, in unaffected skin, is 0).

[5] = tested on: 4T1 murine breast cancer cells; test: Example S: in vitro anticancer screen, 4T1 cells, Wst1; format: cell-based, mouse; details: Mus musculus, 4T1, 18 h, 18 hr, Wst1; for viability at 1 µM: read-out: 4T1 1 μM, percent of cancer cell survival relative to vehicle treated cells; for viability at 5 µM: read-out: 4T1 5 μM, percent of cancer cell survival relative to vehicle treated cells
Summary of the method: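 Read-out is Wst1 absorbance (450 nm, reference 630 nm) after roughly 2 hr dye incubation, giving percent cell survival versus vehicle. Before that, compounds at 1 μM or 5 μM were applied for 18 hr to 4T1 cells plated at 1×10^4 per well.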

[6] = tested on: PC-3 prostate cancer cells; test: Example T: sensitisation of PC-3 cells to doxorubicin, oxaliplatin, paclitaxel or vincristine, Wst1; format: cell-based, human; details: PC-3 cells, 72 hours; for viability at 0.4 µM / viability at 2.5 µM: Homo sapiens, Wst1, vehicle = 100, read-out: No Chemo: percent cell survival; for viability at 0.4 µM: compound 0.4 μM alone; for Doxorubicin 3.5 μM: percent cell survival / Oxaliplatin 100 μM: percent cell survival / Paclitaxel 50 μM: percent cell survival / Vincristine 100 nM: percent cell survival: chemotherapy agent alone normalized to 100%; for viability at 2.5 µM: compound 2.5 μM alone
[7] = tested on: Candida albicans strain 3153; test: Example H: Candida albicans growth inhibition (OD 600 nm); format: cell-based
Experimental: A single colony of Candida Albicans was grown in 50 ml YPD broth overnight (19 hr). The cells were washed with PBS and 3.5×10^4 CFU/ml of C. Albicans (144 μl/well) in YPD medium were plated in 96 well plates. Test compounds were then added to each well with concentration ranged from 5 to 40 μM as final concentrations. The plates were incubated at 30° C. overnight (24 hrs) and OD at 600 nm was read at the end of incubation as an index of yeast cell density.
Part-I: Preparation of Candida albicans Cells • 1. One day prior to the inoculum preparation, pick a single colony of Candida albicans strain 3153 (lot #61794) from the Sabouraud Dextrose Agar plate using the inoculum loop and inoculate into a 250 mL flask containing 50 ml of YPD growth medium • 2. Incubate at 30° C. with shaking at 150 rpm for at least 18 hours with loosened lid to allow air in and facilitate growth. • 3. Examine an aliquot of the culture under a microscope for Candida cell morphology and lack of bacterial contamination; >95% of Candida cells should be blastoconidia. • 4. Transfer 25 ml the overnight culture into a 50-ml plastic disposable centrifuge tube, and centrifuge at 1000×g for 20 min. • 5. Discard the supernatant and wash the pellet with 4 ml of PBS at three times. Vortex and centrifuge, 1000×g for 10 min. • 6. After the third wash, dispense the pellet with 2 ml PBS and vortex. • 7. Make three 1:10 serial dilutions in sterile PBS (10^−1, 10^−2, 10^−3) from the 2 ml cell suspension using 15 ml culture tubes. The final volume in each tube is 5 ml. • 8. […] Make a 1:4 dilution in YPD medium from the 50-fold dilution of 10^−3 cell suspension for testing compounds. • The final C. albicans cell concentration for the test: 3.5×10^4 CFU/ml • 10. Plated 144 ul/well of the above dilution of cell on 96-well plates. Part-II: C. Albicans Growth Inhibition Testing with Compounds • 1. From 10 mM DMSO stock solutions, make serial dilutions of compounds to 0.13, 0.25, 0.40, 0.55, 0.75 and 1.0 mM solutions • 2. Add 6 ul each of diluted compound solutions per well in duplicates. The final concentrations were 0, 5, 10, 16, 22, 30 and 40 micromolar. • 3. Incubated all plates at 30 C for overnight (˜24 hours). • 4. Read absorbance at OD600 for each plate. • 5. Calculate the % inhibition of each compound against the DMSO treated cell.

[8] = compound 0.4 μM + doxorubicin 3.5 μM
[9] = compound 0.4 μM + oxaliplatin 100 μM
[10] = compound 0.4 μM + paclitaxel 50 μM
[11] = compound 0.4 μM + vincristine 100 nM
[12] = compound 2.5 μM + doxorubicin 3.5 μM
[13] = compound 2.5 μM + oxaliplatin 100 μM
[14] = compound 2.5 μM + paclitaxel 50 μM
[15] = compound 2.5 μM + vincristine 100 nM

SMILES | Viable cell percent change, Chronic/48-hour, Mean [1] [%] | IC50 [2] [µM] | viability at 0.4 µM [3] [%] | Ear thickness, Mean ± SEM [4] | Body Weight (mean ± SEM), Final ([4]; mouse, in vivo) [g] | Body Weight (mean ± SEM), Initial ([4]; mouse, in vivo) [g] | D BW ([4]; mouse, in vivo) [g] | PASI Score, Mean ± SEM [4] | viability at 1 µM [5] [%] | viability at 5 µM [5] [%] | other results
CCCCCCNC(=O)c1cccc(Nc2ccnc3ccccc23)c1 [BV, N-Hexyl-3-(quinolin-4-ylamino)benzamide] | 42.14 | 12.3 | 31.6 |  |  |  |  |  |  |  | MIC [2]: 25 µM (≈ 8.69 µg/mL)
c1ccc(Oc2ccc(Nc3ccnc4ccccc34)cc2)cc1 [DD, N-(4-Phenoxyphenyl)quinolin-4-amine] | 44.34 |  |  | 0.589 ± 0.018 | 20.7 ± 0.6 | 20.9 ± 0.8 | -0.2 | 7.450 ± 0.322 | 97.4 | 104 | 
c1ccc2c(NCCCCCCCCNc3ccnc4ccccc34)ccnc2c1 [Compound AI, N^1,N^8-Di(quinolin-4-yl)octane-1,8-diamine] | 28.60 | 6.31 | 36.4 |  |  |  |  |  | 16.2 | 17.9 | viability at 0.4 µM [6]: 36.4%; Doxorubicin 3.5 μM: percent cell survival [6, 8]: 80.8%; Oxaliplatin 100 μM: percent cell survival [6, 9]: 89%; Paclitaxel 50 μM: percent cell survival [6, 10]: 96.1%; Vincristine 100 nM: percent cell survival [6, 11]: 64.9%; inactive compound (inhibition of yeast growth, in words) ([2]; tested 4 to 50 μM): could not reach near 100% kill at high concentration; MIC ([7]; Candida albicans, 3153, 24 hrs at 30° C., YPD, XLfit, read-out: MIC (uM) (99% of inhibition of fungal growth)): 56.4 µM (≈ 22.5 µg/mL); IC50 ([7]; Candida albicans, 3153, read-out: IC50 (uM) (50% inhibition of fungal growth), 24 hrs at 30° C., YPD, XLfit): 18.3 µM
O=C(NCCCCCCCCNc1ccnc2ccccc12)c1cccnc1 [EF, N-[8-(Quinolin-4-ylamino)octyl]nicotinamide] |  |  | 16.7 | 0.613 ± 0.010 | 21.3 ± 0.2 | 21.5 ± 0.6 | -0.2 | 7.275 ± 0.199 | 15.6 | 23.7 | viability at 0.4 µM [6]: 16.7%; Doxorubicin 3.5 μM: percent cell survival [6, 8]: 31.3%; Oxaliplatin 100 μM: percent cell survival [6, 9]: 21.7%; Paclitaxel 50 μM: percent cell survival [6, 10]: 24.3%; Vincristine 100 nM: percent cell survival [6, 11]: 23.4%
CCCCCCOCCCCCCCCNc1ccnc2cc(C(F)(F)F)ccc12 [AY, N-[8-(Hexyloxy)octyl]-7-(trifluoromethyl)quinolin-4-amine] | 7.71 | 16.9 |  |  |  |  |  |  | 131 | 34.5 | viability at 2.5 µM [6]: 50.4%; Doxorubicin 3.5 μM: percent cell survival [6, 12]: 78.9%; Oxaliplatin 100 μM: percent cell survival [6, 13]: 92%; Paclitaxel 50 μM: percent cell survival [6, 14]: 90.1%; Vincristine 100 nM: percent cell survival [6, 15]: 78.7%; MIC [2]: 21.9 µM (≈ 9.29 µg/mL); viability at 2.5 µM [3]: 50.4%
c1ccc(Oc2cccc(Nc3ccnc4ccccc34)c2)cc1 [DE, N-(3-Phenoxyphenyl)quinolin-4-amine] | 25.65 |  |  | 0.593 ± 0.016 | 20.5 ± 0.5 | 20.6 ± 0.5 | -0.1 | 7.250 ± 0.183 | 60.1 | 28.6 | viability at 2.5 µM [6]: 42%; Doxorubicin 3.5 μM: percent cell survival [6, 12]: 69.3%; Oxaliplatin 100 μM: percent cell survival [6, 13]: 84.7%; Paclitaxel 50 μM: percent cell survival [6, 14]: 68.6%; Vincristine 100 nM: percent cell survival [6, 15]: 74%; viability at 2.5 µM [3]: 42%
CCCCCCCCCCOc1cccc(CNc2ccnc3ccccc23)c1 [DU, N-[3-(Decyloxy)benzyl]quinolin-4-amine] | 17.10 |  |  | 0.607 ± 0.027 | 20.9 ± 0.5 | 20.4 ± 0.7 |  | 7.975 ± 0.621 |  |  | D BW (g) ([4]; mouse, in vivo): +0.5 g
